Experimental data from ChEMBL document CHEMBL1139635, “Synthesis, antitumor evaluation and DNA photocleaving activity of novel methylthiazonaphthalimides with aminoalkyl side chains” (Bioorg Med Chem Lett, 2005).

Legend:
Nucleic Acid = assay: Scatchard binding constant towards calf thymus DNA; format: functional; conditions: Bos taurus
P388 = assay: Cytotoxic concentration against murine P388 leukemia cell line growth determined by microculture tetrazolium-formazan method; format: functional, cell-based; conditions: Mus musculus
A549 = assay: Cytotoxic concentration against human A549 lung cancer cell line determined by sulforhodamine B dye-staining method; format: functional, cell-based

| Compound | Binding constant (Nucleic Acid) [M⁻¹] | IC50 (P388) [nM] | IC50 (A549) [nM] |
| --- | --- | --- | --- |
| Cc1nc2cc3c4c(cccc4c2s1)C(=O)N(CCN(C)C)C3=O | 231000 | 31 | 82.8 |
| CCN(CC)CCN1C(=O)c2cccc3c2c(cc2nc(C)sc23)C1=O | 166000 | 640 | 158 |
| Cc1nc2cc3c4c(cccc4c2s1)C(=O)N(CCN1CCNCC1)C3=O | 226000 | 1130 | 20.8 |
| Cc1nc2cc3c4c(cccc4c2s1)C(=O)N(CCCN(C)C)C3=O | 666000 | 1700 | 1800 |
| CN(C)CCN1C(=O)c2cccc3cc(N)cc(c23)C1=O [AMONAFIDE] |  | 200 |  |
